These results are taken from patent US8471005B2 (Cephalon, Inc., priority 2008, dated 2013).

The structures appear in SMILES notation. Read-outs that look alike come from different tables or passages of the source. Some results are limits rather than exact numbers.

The target of assay [1] is T1, ALK (Homo sapiens, UniProt Q9UM73).
T1 construct: host or cells: baculovirus expression system
Description: ALK Kinase Assay (ELISA/TRF, PLC-γ substrate). Format: biochemical. Particulars: read-out: ALK Potency. In short, it runs like this:
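PLC-γ coat 10 μg/mL in TBS; ALK 30 ng/ml added to start; 37° C, 15 min; Eu-N1 PT66 antibody detection (TRF). IC50: % inhibition vs log10 [cpd], variable-slope sigmoidal fit.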
(ELISA stands for enzyme-linked immunosorbent assay.)

Assay [2] deals with T2, JAK2 (Homo sapiens, UniProt O60674).
T2 construct: host or cells: baculovirus expression system
As to the kind of experiment: Recombinant Human JAK2 Kinase Assay (TRF). The following applies: read-out: JAK2 Potency. Format: biochemical. The method in brief: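 Europium-labelled PY100 antibody reported tyrosine phosphorylation of a Neutravidin-captured biotinyl 15-mer peptide by JAK2 (baculovirus-expressed, 15 ng/ml). Conditions: 20 mM HEPES pH 7.2, 0.2 μM ATP, 1 mM MnCl2, 0.1% BSA, DMSO 2.5% final, 20 min at room temperature.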

The mark [3] stands for this setting: ALK kinase inhibition, 1 μM ATP.
The mark [4] stands for this setting: JAK2 kinase inhibition, 0.2 μM ATP.

T1 sequence (Q9UM73 19-1620): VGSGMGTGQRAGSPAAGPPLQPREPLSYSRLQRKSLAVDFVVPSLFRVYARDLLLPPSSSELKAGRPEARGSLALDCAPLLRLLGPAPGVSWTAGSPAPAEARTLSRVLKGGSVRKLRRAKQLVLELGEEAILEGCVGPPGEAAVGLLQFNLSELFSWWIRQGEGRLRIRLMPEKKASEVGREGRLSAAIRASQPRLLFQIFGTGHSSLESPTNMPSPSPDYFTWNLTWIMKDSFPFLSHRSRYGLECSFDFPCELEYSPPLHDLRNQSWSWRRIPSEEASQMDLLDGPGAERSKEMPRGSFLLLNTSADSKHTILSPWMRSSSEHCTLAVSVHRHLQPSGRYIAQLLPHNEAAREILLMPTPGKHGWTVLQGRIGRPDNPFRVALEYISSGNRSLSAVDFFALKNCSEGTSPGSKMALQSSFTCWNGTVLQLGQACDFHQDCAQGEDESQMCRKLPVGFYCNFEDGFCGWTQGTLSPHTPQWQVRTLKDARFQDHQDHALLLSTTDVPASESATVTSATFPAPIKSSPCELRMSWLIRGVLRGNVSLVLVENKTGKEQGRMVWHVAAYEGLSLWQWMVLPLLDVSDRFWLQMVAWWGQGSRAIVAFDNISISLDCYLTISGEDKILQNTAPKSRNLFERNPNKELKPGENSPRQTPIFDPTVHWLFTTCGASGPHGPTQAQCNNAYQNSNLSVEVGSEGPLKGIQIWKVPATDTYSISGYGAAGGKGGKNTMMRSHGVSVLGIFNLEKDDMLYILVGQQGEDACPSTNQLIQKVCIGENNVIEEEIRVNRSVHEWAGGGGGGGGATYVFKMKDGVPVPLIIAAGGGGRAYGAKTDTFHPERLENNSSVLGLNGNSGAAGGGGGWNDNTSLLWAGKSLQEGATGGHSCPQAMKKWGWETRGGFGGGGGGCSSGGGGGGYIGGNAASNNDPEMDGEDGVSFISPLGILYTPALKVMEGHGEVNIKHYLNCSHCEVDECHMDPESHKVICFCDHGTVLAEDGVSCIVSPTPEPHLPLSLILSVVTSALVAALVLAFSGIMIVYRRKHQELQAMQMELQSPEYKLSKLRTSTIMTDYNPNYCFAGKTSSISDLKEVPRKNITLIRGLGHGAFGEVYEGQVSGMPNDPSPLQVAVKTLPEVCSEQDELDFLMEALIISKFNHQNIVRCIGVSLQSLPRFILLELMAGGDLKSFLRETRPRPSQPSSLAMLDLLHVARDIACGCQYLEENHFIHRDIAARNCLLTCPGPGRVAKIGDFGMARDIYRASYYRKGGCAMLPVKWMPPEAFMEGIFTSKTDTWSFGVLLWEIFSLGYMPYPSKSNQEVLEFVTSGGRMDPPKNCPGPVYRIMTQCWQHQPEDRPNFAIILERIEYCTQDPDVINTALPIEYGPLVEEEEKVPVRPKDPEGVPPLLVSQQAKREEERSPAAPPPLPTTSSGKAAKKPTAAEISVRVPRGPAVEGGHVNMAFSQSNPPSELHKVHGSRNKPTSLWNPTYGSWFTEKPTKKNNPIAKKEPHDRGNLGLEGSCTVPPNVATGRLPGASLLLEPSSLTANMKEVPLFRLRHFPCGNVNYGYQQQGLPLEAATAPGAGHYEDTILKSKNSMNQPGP
T2 sequence (O60674 whole entry): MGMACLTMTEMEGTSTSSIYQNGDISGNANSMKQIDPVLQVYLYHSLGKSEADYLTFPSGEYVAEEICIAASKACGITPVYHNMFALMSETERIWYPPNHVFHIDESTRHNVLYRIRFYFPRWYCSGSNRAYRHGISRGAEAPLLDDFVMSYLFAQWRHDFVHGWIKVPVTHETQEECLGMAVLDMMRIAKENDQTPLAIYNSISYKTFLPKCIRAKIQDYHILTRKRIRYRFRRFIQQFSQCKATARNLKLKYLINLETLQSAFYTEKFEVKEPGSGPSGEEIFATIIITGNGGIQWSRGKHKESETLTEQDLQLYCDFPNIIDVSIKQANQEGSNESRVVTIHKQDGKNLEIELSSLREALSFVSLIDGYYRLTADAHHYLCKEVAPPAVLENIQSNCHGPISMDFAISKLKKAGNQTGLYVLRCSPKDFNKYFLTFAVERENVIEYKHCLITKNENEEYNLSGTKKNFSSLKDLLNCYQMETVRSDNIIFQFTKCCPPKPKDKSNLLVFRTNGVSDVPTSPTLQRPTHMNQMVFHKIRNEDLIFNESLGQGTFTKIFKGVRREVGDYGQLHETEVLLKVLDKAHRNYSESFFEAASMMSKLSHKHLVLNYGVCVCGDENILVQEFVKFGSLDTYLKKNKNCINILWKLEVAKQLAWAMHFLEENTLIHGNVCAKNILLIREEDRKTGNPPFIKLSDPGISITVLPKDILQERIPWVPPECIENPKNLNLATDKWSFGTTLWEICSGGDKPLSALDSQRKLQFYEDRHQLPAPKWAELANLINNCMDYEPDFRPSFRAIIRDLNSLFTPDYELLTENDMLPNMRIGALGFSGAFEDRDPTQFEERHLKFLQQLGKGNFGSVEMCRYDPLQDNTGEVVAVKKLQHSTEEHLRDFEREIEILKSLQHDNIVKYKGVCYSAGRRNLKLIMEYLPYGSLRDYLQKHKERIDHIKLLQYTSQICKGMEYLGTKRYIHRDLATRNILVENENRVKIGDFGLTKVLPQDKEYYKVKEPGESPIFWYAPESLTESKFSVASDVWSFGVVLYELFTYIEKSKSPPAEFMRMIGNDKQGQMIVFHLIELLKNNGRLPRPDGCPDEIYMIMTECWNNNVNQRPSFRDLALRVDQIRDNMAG

In the case of `CN(C)CC(=O)Nc1cccc(Nc2ncc3ccc(-c4cccc(S(=O)(=O)NC(C)(C)C)c4)n3n2)c1` [Example 897, N-{3-[7-(3-tert-Butylsulfamoyl-phenyl)-pyrrolo[2,1-f][1,2,4]triazin-2-ylamino]-phenyl}-2-dimethylamino-acetamide], the IC50 in assay [1] (setting [3]) and in assay [2] (setting [4]) was below 100 nM throughout.

Turning to `CC(C)(C)NS(=O)(=O)c1cccc(-c2ccc3cnc(Nc4ccc5c(cnn5CCN5CCOCC5)c4)nn23)c1` [Example 1323, N-tert-Butyl-3-{2-[1-(2-morpholin-4-yl-ethyl)-1H-indazol-5-ylamino]-pyrrolo[2,1-f][1,2,4]triazin-7-yl}-benzenesulfonamide], the figures for the IC50 in assay [1] (setting [3]) and in assay [2] (setting [4]) were 100 to 1000 nM and below 100 nM, respectively.

Turning to `COc1cc(N2CCC(N3CCCN(C)CC3)CC2)ccc1Nc1ncc2ccc(-c3ccccc3OC)n2n1` [Example 781, {2-Methoxy-4-[4-(4-methyl-[1,4]diazepan-1-yl)-piperidin-1-yl]-phenyl}-[7-(2-methoxy-phenyl)-pyrrolo[2,1-f][1,2,4]triazin-2-yl]-amine], the IC50 in assay [1] (setting [3]) and in assay [2] (setting [4]) was below 100 nM in each case.

As to `CS(=O)(=O)c1ccc(-c2ccc3cnc(Nc4ccc(C5CCN(CCO)CC5)cc4)nn23)cc1` [Example 679, 2-(4-{4-[7-(4-Methanesulfonyl-phenyl)-pyrrolo[2,1-f][1,2,4]triazin-2-ylamino]-phenyl}-piperidin-1-yl)-ethanol], the IC50 in assay [1] (setting [3]) and in assay [2] (setting [4]) was below 100 nM throughout.

With `CC(C)S(=O)(=O)c1cccc(-c2ccc3cnc(Nc4ccc(Cl)c(OC[C@H]5CCCN5)c4)nn23)c1` [Example 1016, [4-Chloro-3-((R)-1-pyrrolidin-2-ylmethoxy)-phenyl]-{7-[3-(propane-2-sulfonyl)-phenyl]-pyrrolo[2,1-f][1,2,4]triazin-2-yl}-amine], the values for the IC50 in assay [1] (setting [3]) and in assay [2] (setting [4]) were 100 to 1000 nM and below 100 nM, respectively.

Consider `COc1cc(Nc2ncc3ccc(-c4cccc(S(C)(=O)=O)c4)n3n2)ccc1C1CCN(CC(N)=O)CC1` [Example 923, 2-(4-{4-[7-(3-Methanesulfonyl-phenyl)-pyrrolo[2,1-f][1,2,4]triazin-2-ylamino]-2-methoxy-phenyl}-piperidin-1-yl)-acetamide], for which the results for the IC50 in assay [1] (setting [3]) and in assay [2] (setting [4]) were 100 to 1000 nM and below 100 nM, respectively.

Turning to `COc1cc(N2CCC(N3CCC(F)(F)CC3)CC2)ccc1Nc1ncc2ccc(-c3ccccc3OC)n2n1` [Example 1475, [4-(4,4-Difluoro-[1,4′]bipiperidinyl-1′-yl)-2-methoxy-phenyl]-[7-(2-methoxy-phenyl)-pyrrolo[2,1-f][1,2,4]triazin-2-yl]-amine], the results for the IC50 in assay [1] (ALK Kinase Inhibition) and in assay [2] (JAK2 Kinase Inhibition) were below 100 nM and 100 to 1000 nM, respectively.

Consider `CC(=O)Nc1cc(Nc2ncc3ccc(-c4cccc(Cl)c4)n3n2)ccc1C(C)C` [Example 303, N-{5-[7-(3-Chloro-phenyl)-pyrrolo[2,1-f][1,2,4]triazin-2-ylamino]-2-isopropyl-phenyl}-acetamide], for which the values for the IC50 in assay [1] (ALK Kinase Inhibition) and in assay [2] (JAK2 Kinase Inhibition) were 1000 to 10000 nM and below 100 nM, respectively.

For `CC(C)c1nc2ccc(Nc3ncc4ccc(-c5cccc(S(=O)(=O)NC(C)(C)C)c5)n4n3)cc2[nH]1` [Example 1329, N-tert-Butyl-3-[2-(2-isopropyl-3H-benzimidazol-5-ylamino)-pyrrolo[2,1-f][1,2,4]triazin-7-yl]-benzenesulfonamide], the IC50 is 1000 to 10000 nM in assay [1] (setting [3]) and below 100 nM in assay [2] (setting [4]).

On to `CC(C)C(=O)Nc1cccc(Nc2ncc3ccc(-c4cnn(C)c4)n3n2)c1` [Example 963, N-{3-[7-(1-Methyl-1H-pyrazol-4-yl)-pyrrolo[2,1-f][1,2,4]triazin-2-ylamino]-phenyl}-isobutyramide], for which the IC50 was 1000 to 10000 nM in assay [1] (setting [3]) and below 100 nM in assay [2] (setting [4]).

Turning to `COc1ccc(-c2ccc3cnc(Nc4ccc(C5CNCCN5)cc4)nn23)cn1` (stereo not shown) [Example 1529, [7-(6-Methoxy-pyridin-3-yl)-pyrrolo[2,1-f][1,2,4]triazin-2-yl]-(4-piperazin-2-yl-phenyl)-amine], the IC50 in assay [1] (ALK Kinase Inhibition) is 100 to 1000 nM; in assay [2] (JAK2 Kinase Inhibition), below 100 nM.
